The source of these data is patent publication US9642856B2, “Treatment for pancreatic cancer” (University Health Network, priority 2013, dated 2017).

One test has as its system PANC-1 cell line. In words: Growth inhibition (GI50) assay, SRB, PANC-1. Format: cell-based. The settings on record: Homo sapiens, 120 h, PANC-1 (KRas mutant, TP53 mutant, CDKN2A homozygous deletion, SMAD4 wild-type), 5 days. An excerpt:
(§1) BxPC-3 and PANC-1 cell lines were obtained from American Type Culture Collection (ATCC, Manassas, Va.) and maintained according to the supplier's instructions. Short tandem repeat (STR) profiling was used to verify authenticity of the cell lines. Sixteen STR loci were simultaneously amplified in a multiplex PCR reaction (The Hospital for Sick Children, Toronto, Canada), and the ATCC database was used for comparison, where possible. Cell lines were routinely tested for mycoplasma and used at low passage numbers (<15).
(§2) Cells were seeded at 3000 per 80 μL, into 96-well plates according to cell growth rate 24 hours before compound overlay and cultured at 37° C. and 5% CO2. Compounds were prepared as 10 mM stocks in 100% DMSO. […] After 5 days, cell growth in each well was assessed by the sulforhodamine B (SRB) assay measuring total protein content. […] The SRB was solubilized with 100 μL of 10 mM Tris pH 10.5 per well, and absorbance was read at 570 nm using a SpectraPlus microplate reader (Molecular Devices Corporation). SRB absorbance values were adjusted by subtracting the average of the baseline readings from untreated cells assessed one day after cell seeding. The percentage (%) of relative inhibition of cell growth was calculated by comparing to DMSO-treated cells. GI50s were calculated using GraphPad PRISM software (GraphPad Software Inc., San Diego, Calif.).

For test [1], the system named is patient-derived pancreatic xenograft models. Put plainly: Orthotopic patient-derived pancreatic xenograft models, mono-therapy. Format: in vivo, NOD/SCID mice. The source says: 6 orthotopically implanted patient-derived pancreatic xenograft models with varying growth rates and levels of tumor hypoxia were used in order to investigate the efficiency of the Compound II as a mono-therapy or in combination with Gemcitabine.
The patient-derived pancreatic xenograft models were established by attaching a piece of the patient tumor on the pancreas of 4-5 week old Non-obese diabetic (NOD)/Severe combined immunodeficiency (SCID) mice. The xenograft models closely resemble the morphology of the patient specimen and represent the range of tumor morphologies described in pancreatic cancer patients.
Tumor volume was evaluated by palpation and animals were randomized into treatment groups. Animals were treated with Compound II using a daily dose of 7.5 mg/kg by oral gavage for 21 days for experiments evaluating activity as a mono-therapy, or with 13.5 mg/kg according to a 2-day-on-5-days-off schedule in combination bi-weekly 100 mg/kg Gemcitabine for 21 days.
Tumor weight after completion of the treatment and overall survival were evaluated. Immunofluorescence (IF) staining of xenograft sections was used to evaluate tumor hypoxia and proliferation. The impact of Compound II treatment on survival was examined in 6 animals per group. Mice were followed until the animals either died or had to be euthanized due to oversized tumors.
For orientation: In xenograft studies the graft and the host belong to different species.

Another test relates to BxPC-3 cell line. Put plainly: Growth inhibition (GI50) assay, SRB, BxPC-3. Conditions: Homo sapiens, 120 h, BxPC-3 (KRas wild-type, TP53 mutant, SMAD4 homozygous deletion), 5 days. Format: cell-based.
Description: as §1, §2

Test [2] has as its system OCIP51 xenograft tumor initiating cells. Put plainly: Limiting dilution assay for tumor initiating cells (TIC). Format: in vivo, NOD/SCID mice. Conditions: 52 mg/kg, tumors harvested 12 h after treatment, preliminary results. The procedure:
FIG. 2(C) is a schematic overview of the limiting dilution assay. Briefly, xenograft tumors were grown to a diameter of approximately 1 cm and treated with 52 mg/kg Compound II and tumors harvested 12 h after treatment. Excised tumors were mechanically minced and a single cell suspension prepared using a DNAse, Collagenase and Protease cocktail. A sample of the single cell suspension was stained for mouse CD31-FITC and H2K-FITC to establish the mouse cell content. Cells were counted using a haemocytometer and the human content was calculated. 3-6 dilutions of human cells per sample were injected into the flank of NOD/SCID mice. 3 mice were injected into both flanks per dilution. Tumor take rate was observed over the course of 6 month. Tumor initiating frequency was calculated from using the L-Calc software. […] The remaining 3 xenograft models have been injected for the dilutions.

In a further test the test system is OCIP110 tumors. In words: OCIP110 orthotopic xenograft, Compound II alone or with Cisplatin. Format: in vivo, SCID mice. The settings on record: Compound II 10 mg/kg 2-on/5-off schedule, 21 days. On the procedure:
OCIP110 tumors were implanted orthotopically onto the pancreas of 4-5 week old SCID mice. Tumor volume was evaluated by palpation and animals were randomized into treatment groups. Animals were treated with either Compound II on a 2-on/5-off schedule with 10 mg/kg, a weekly dose of 4 mg/kg Cisplatin or the combination treatment for 21 days. Tumor weight was evaluated when tumors were excised at the end of the treatment.

Each structure is given as a SMILES string.

In the case of `COc1ccc2c(c1)[C@]1(C[C@H]1c1ccc3c(/C=C/c4ccc(CN5CCOCC5)cc4)n[nH]c3c1)C(=O)N2C` [Compound II], the GI50 in the test on PANC-1 cell line was determined as 25 nM; in the test with BxPC-3 cell line it was 15 nM. For the same compound, the “Tumor weight after completion of the treatment” value in test [1] (7.5 mg/kg daily by oral gavage for 21 days, mono-therapy, 6 xenograft models) was “significantly reduced tumor weight in 4 of the 6 tested patient-derived pancreatic xenograft models”. Also, in test [1] (OCIP51 (highly hypoxic, fast growing) model, 7.5 mg/kg daily oral, 21 days, vehicle 54 days), the medium survival is listed as 103 days. Besides, in test [1] (mono-therapy for 21 days, responsive models), the overall survival entry is listed as “increase in overall survival in a number of responsive models”. Moreover, in test [1] (mono-therapy, highly hypoxic versus medium or low hypoxic models, preliminary results), the “response to treatment versus tumor hypoxia” value is listed as “strongest response to Compound II as a mono-therapy was observed in highly hypoxic models”. For the same compound, the “Number of tumor initiating cells (TICs)” value in test [2] is “reduced the number of TICs in OCIP51”. For the same compound, the “Tumor weight at the end of the treatment” value in the test on OCIP110 tumors is “reduced tumor weight”.

The GI50 is the concentration giving 50% growth inhibition. A low value points to greater sensitivity of the cells.
